Where two headings read alike, the source gives them in different places.

One series has as its target κ receptor (Homo sapiens (Human), UniProt P41145). The series can be described thus: Competitive Kappa receptor binding assay (3H-U69593).
Another series has as its target μ receptor (Homo sapiens (Human), UniProt P35372). The series can be described thus: μ receptor affinity assay (3H-DAMGO). The class given is binding.
The target in a further series is δ receptor (Homo sapiens (Human), UniProt P41143). The series can be described thus: Competitive delta receptor binding assay (3H-DADLE).
Series [1] concerns the target κ-opioid receptor (Kappa) (Homo sapiens (Human), UniProt P41145). The series can be described thus: In vitro functional assay, HTRF cAMP-Gi in CHO-K1-OPRK1 cells. The series is classed as cell-based. A general note: In TR-FRET formats the signal depends on donor and acceptor labels being close together.
The test system of series [2] is ICR mice. The series can be described thus: Acetic acid writhing test in mice. The class given is in vivo. As to conditions: Mus musculus, read-out: Acetic acid writhing in mice ED50. For orientation: An intraperitoneal irritant provokes the stretching counted in writhing tests.
The test system of series [3] is ICR mice. As to conditions: mouse, in vivo.
In the next series the target is hERG (Homo sapiens (Human), UniProt Q12809). Nature of the series: in vitro. As to conditions: pH 7.4.
The nature of series [4]: Autonomous activity test in mice. Conditions: male, ICR, mouse, in vivo, iv.
A short description of a further series: in vivo. Conditions: male, ICR, mouse, iv.
Series [5] concerns ICR mice. Nature of the series: Sedation safety window. As to conditions: sedation side effect ED50 (autonomic activity test)/efficacy ED50 (acetic acid writhing test).
Series [6] in a line: PK and blood-brain barrier permeability in mice. The series is classed as in vivo. As to conditions: male ICR mice, intravenous 1 mg/kg. The procedure: The compounds of the present disclosure were investigated for pharmacokinetic characteristics and blood-brain barrier permeability in mice.
Healthy male ICR mice were randomly grouped, 6 animals per group. For each test compound, 3 groups of animals were used. The first group of animals was used for collecting blood and brain 5 min after the administration, and the second group of animals and the third group of animals were used for cross blood collection at subsequent time points; each test compound was intravenously administered (1 mg/kg) to corresponding groups of mice, and blood sampling via submaxillary veins of the mice was carried out at different time points. Drug contents in plasma and brain tissues at different time points were measured by an LC-MS/MS method, the brain-to-blood ratio B/P was calculated by using EXCEL software, and pharmacokinetic parameters were calculated by using DAS3.0 software.

Setting [7] is: single intravenous injection, male ICR mice.

Usually Ki stands for the equilibrium dissociation constant of an inhibitor or competing ligand from its target. A lower Ki goes with tighter binding. As usually defined, the EC50 is the concentration at which the effect is half-maximal. Higher therefore signals weaker potency. The term ED50 denotes the dose that gives a 50% effect, or the effect in half of the subjects. For orientation: inhibition means the drop in the measured response relative to a control, in per cent. Take `COC(=O)NC1CCN(C(=O)[C@@H](CCCCN)NC(=O)[C@@H](CC(C)C)NC(=O)[C@@H](Cc2ccccc2)NC(=O)[C@H](N)Cc2ccccc2)CC1` [Compound 1A]: the Ki on κ receptor is 0.4 nM; at μ receptor it was above 1000 nM; on δ receptor, above 1000 nM. This compound also returned an EC50 in series [1] of 0.05 nM. For the same compound, the 50% effective dose (ED50) in the series on ICR mice [2] (setting [7]) came out at 0.38 mg/kg. The compound further gave a Safety window in the series with ICR mice [3] of 2.84. Further, the inhibition at 10 µM on hERG is -0.94%. In series [4], this compound had an ED50 at 30 min of 1.08 mg/kg.

Consider `CC(C)C[C@@H](NC(=O)[C@@H](Cc1ccccc1)NC(=O)[C@H](N)Cc1ccccc1)C(=O)N[C@H](CCCCN)C(=O)N1CCS(=N)(=O)CC1` [Compound 1B, (R)—N—((R)-6-amino-1-(1-imino-1-oxo-1λ6-thiomorpholine)-1-oxohex-2-yl)-2-((R)-2-((R)-2-amino-3-phenylpropionylamino)-3-phenylpropionylamino)-4-methylpentanamide], for which the figures for the Ki on κ receptor, at μ receptor and on δ receptor were 0.42 nM, above 1000 nM and above 1000 nM, respectively. For the same compound, the EC50 in series [1] was found to be 0.52 nM. Also, the values for the ED50 with ICR mice [2] (iv) and in “in vivo” were 0.2 mg/kg and 0.5 mg/kg, respectively. This compound gave a Safety window in the series with ICR mice [3] of 2.50. Further, the inhibition at 10 µM on hERG was found to be 1.2%.

On to `CC(=O)N=S1(=O)CCN(C(=O)[C@@H](CCCCN)NC(=O)[C@@H](CC(C)C)NC(=O)[C@@H](Cc2ccccc2)NC(=O)[C@H](N)Cc2ccccc2)CC1` [Compound 3B], for which the Ki at κ receptor was 1.05 nM; on μ receptor, above 1000 nM; on δ receptor, above 1000 nM. This compound showed an EC50 in [1] of 1 nM. Further, the ED50 with ICR mice [2] (iv) came out at 0.42 mg/kg. In the series on ICR mice [3], the Safety window is on record as 7.74. The inhibition at 10 µM on hERG was 1.13%.

As to `CC(C)C[C@@H](NC(=O)[C@@H](Cc1ccccc1)NC(=O)[C@H](N)Cc1ccccc1)C(=O)N[C@H](CCCCN)C(=O)N1CCC2(CC1)OC(=O)Nc1ncccc12` [Compound 4A, (2R)—N-[(2R)-6-amino-1-oxo-1-{2′-oxo-1′H-spiro[piperidine-4,4′-pyrido[2,3-d][1,3]oxazin]-1-yl}hex-2-yl]-2-[(2R)-2-[(2R)-2-amino-3-phenylpropionylamino]-3-phenylpropionylamino]-4-methylpentanamide], the Ki at κ receptor was 0.3 nM; on μ receptor it was above 1000 nM; at δ receptor it was above 1000 nM. Also, the concentration for a half-maximal effect (EC50) in series [1] came to 0.2 nM. In addition, in the series with ICR mice [2] (setting [7]), the ED50 worked out at 0.41 mg/kg. In addition, on hERG, the inhibition at 10 µM came out at 0.9%. In the series with ICR mice [5], this compound returned a Safety window of 3.05. In series [4], this compound showed an ED50 at 30 min of 1.25 mg/kg.

By AUC(0-inf) is commonly meant total exposure, with the tail of the curve extrapolated. By Vd is commonly meant a proportionality between amount in the body and measured concentration, not a real space. Usually clearance stands for the volume of plasma or blood freed of the substance per unit of time. Higher therefore signals a high capacity for elimination. What is called Cmax is the maximum level reached in the sampled fluid or tissue. Compound `CC(C)C[C@@H](NC(=O)[C@@H](Cc1ccccc1)NC(=O)N(CCN)Cc1ccccc1)C(=O)N[C@H](CCCCN)C(=O)N1CCC(N)(C(=O)O)CC1` [Compound 13] had a Ki on κ receptor of 0.13 nM. This compound showed a Ki on μ receptor above 1000 nM. In addition, the Ki at δ receptor is above 1000 nM. This compound also gave an EC50 in series [1] of 0.52 nM. In addition, the ED50 in the series with ICR mice [2] (setting [7]) is 0.23 mg/kg. Further, in series [6] (blood and brain 5 min after administration), the “B/P (brain-to-blood ratio)” value came to 0.015. In series [6] (mouse, plasma), the AUC(0-inf) was determined as 1350 ng·h/mL, the Vd amounted to 0.38 L/kg, the clearance was 12.3 mL/min/kg and the Cmax was determined as 2540 ng/mL. Also, the half-life in series [6] (mouse, plasma, read-out: t½ (converted)) is 21 min. In addition, the inhibition at 10 µM at hERG amounted to 0.8%. The Safety window in the series with ICR mice [5] is 12.30. The same compound came in with an ED50 at 30 min in [4] of 2.83 mg/kg.

Values taken from US20250230129A1, “POLYAMIDE COMPOUNDS, METHOD FOR PREPARING SAME, AND MEDICAL USE THEREOF” (priority 2022, published 2025).
